Reference: patent US7778779B2, “Method of identifying a chemical entity which is a hydroxylase modulator” (Isis Innovation Limited, priority 2002, dated 2010)

Experiments:
Type in all cases: biochemical
FIH = target: T1, FIH (Homo sapiens, UniProt Q9NWT6); assay: kinetic analyses of N-oxaloyl amino acid inhibitors of FIH; details: for IC50: inhibition of FIH, kinetic analyses
T1 construct: His6 (N, cleaved yes); made in house; host or cells: Escherichia coli BL21(DE3), pET28a(+)

PHD isozymes = assay: inhibition of PHD isozymes by N-oxaloylalanine enantiomers; details: S- versus R-enantiomer
Description: (§1) Such inhibitors may or may not chelate to an active site metal.

[1] = system: procollagen prolyl-hydroxylase; assay: inhibition of procollagen prolyl-hydroxylase by N-oxaloylalanine enantiomers; details: S- versus R-enantiomer
Description: as §1

T1 sequence (Q9NWT6 whole entry): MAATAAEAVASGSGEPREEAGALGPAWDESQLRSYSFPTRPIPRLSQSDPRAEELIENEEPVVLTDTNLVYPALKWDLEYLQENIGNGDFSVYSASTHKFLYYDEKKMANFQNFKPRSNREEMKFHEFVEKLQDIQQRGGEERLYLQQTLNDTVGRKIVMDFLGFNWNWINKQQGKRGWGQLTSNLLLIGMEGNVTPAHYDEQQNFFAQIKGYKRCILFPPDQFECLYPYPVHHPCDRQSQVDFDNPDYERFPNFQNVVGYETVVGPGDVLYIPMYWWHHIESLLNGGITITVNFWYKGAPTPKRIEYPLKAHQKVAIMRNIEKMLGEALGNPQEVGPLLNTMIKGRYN

| IC50 (FIH) | relative potency of enantiomers (reversed selectivity) [1] | inhibition of FIH, in words (FIH; used as 2OG analogue in co-crystallisation) | SMILES | relative potency of enantiomers (reversed selectivity) (PHD isozymes) |
| --- | --- | --- | --- | --- |
| 2.5 mM | more potent | – | C[C@H](NC(=O)C(=O)O)C(=O)O [S-enantiomer, N-oxaloylalanine] | more potent |
| 0.4 mM | – | – | C[C@H](NC(=O)C(=O)O)C(=O)O (single isomer, unassigned) [R-enantiomer, N-oxaloylalanine] | – |
| – | – | FIH inhibitor | O=C(O)CNC(=O)C(=O)O [NOG, N-oxaloylglycine, reference compound] | – |
